Like-named read-outs stand apart in the source and are kept apart here.
How the values were obtained:
[1] = Study for confirmation of conversion to brexpiprazole in a buffer (stability of the evaluation compounds); type: physicochemical; conditions: in buffer, average of duplicate; for Concentration of brexpiprazole formed: 60-minute reaction sample; for Concentration of evaluation compound decreased: decrease in 60-minute vs 0-minute reaction sample
Outline: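 Compounds (final 1 μmol/L, from 100 μmol/L working solutions) incubated in buffer at 37° C. for 0 or 60 min, in duplicate, after 3 min pre-incubation of the reaction solution. Reactions stopped with acetonitrile/isopropanol (4:1) containing internal standards; compound and formed brexpiprazole quantified against 0.01–1 μmol/L calibration samples.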

[2] = tested on: HL-60 cells; assay: in vitro; type: cell-based, human
Outline: (§1)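 Cytotoxicity (%) from supernatant LDH activity after ~24 h treatment at 300 μmol/L final, normalised to no-treatment (0%) and lysis buffer (100%). Cells were PMA-differentiated (10 nM, ~72 h) HL-60 in 2% FBS medium; triplicate means.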

[3] = Dog irritation study (subcutaneous injection site, histopathological examination); type: in vivo; conditions: stated as reason for choice as positive control
Experimental: Male beagle dogs were purchased at the age of 5-7 months from Kitayama Labes Co., Ltd. and used in the experiment after acclimatization. The breeding environment was as follows: feeding: 250 g of solid feed once a day, water intake: unlimited, number of animals per cage: 1, temperature: 21-25° C., humidity: 50-70%, lighting time: 7:00-19:00. The test formulation was subcutaneously administered to dogs anesthetized with 25 mg/kg thiopental sodium using a plastic syringe at a dose of 10 mg/kg per formulation, changing the position on the back. […] The collected tissues were fixed in 10% neutral buffered formalin, and hematoxylin and eosin-stained specimens were prepared for histopathological examination.

[4] = in vitro; type: cell-based, human; conditions: human, 300 μmol/L, about 24 hours, PMA-differentiated HL-60 cells, LDH, no-treatment 0%, cell lysis buffer 100%, read-out: cytotoxicity (%) Evaluation compound results
Outline: as §1

[5] = human, differentiated hl-60 cells, 24 h, 300 µM

Row | Molecule | Concentration of brexpiprazole formed [1] | Concentration of evaluation compound decreased [1] | cytotoxicity (%) Evaluation compound results [2, 5] | cytotoxicity at 24 h, 300 µM ([4]; differentiated hl-60 cells) | also measured
1 | COCCOCCOP(=O)([O-])OC[N+]1(CCCCOc2ccc3ccc(=O)[nH]c3c2)CCN(c2cccc3sccc23)CC1 [EX 7, (4-(benzo[b]thiophen-4-yl)-1-(4-((2-oxo-1,2-dihydroquinolin-7-yl)oxy)butyl)piperazin-1-ium-1-yl)methyl (2-(2-methoxyethoxy)ethyl)phosphate] | 0 nM | -60 nM | −4% |  | 
2 | (4-(benzo[b]thiophen-4-yl)-1-(4-((2-oxo-1,2-dihydroquinolin-7-yl)oxy)butyl)piperazin-1-ium-1-yl)methyl(2-(2-butoxyethoxy)ethyl) phosphate [EX 99] | 0 nM | 0 nM | −6% |  | 
3 | CCCCCC(=O)OCn1c(=O)ccc2ccc(OCCCCN3CCN(c4cccc5sccc45)CC3)cc21 [Reference Example 3 compound, (7-(4-(4-(benzo[b]thiophen-4-yl)piperazin-1-yl)butoxy)-2-oxoquinolin-1(2H)-yl)methyl hexanoate] |  |  |  |  | irritation when subcutaneously administered to dogs [3]: showed irritation
4 | CCOP(=O)([O-])OC[N+]1(CCCCOc2ccc3ccc(=O)[nH]c3c2)CCN(c2cccc3sccc23)CC1 [EX 3, (4-(benzo[b]thiophen-4-yl)-1-(4-((2-oxo-1,2-dihydroquinolin-7-yl)oxy)butyl)piperazin-1-ium-1-yl)methyl ethyl phosphate] | 0 nM | 10 nM |  |  | cytotoxicity (%) Evaluation compound results ([2]; 300 μmol/L, about 24 hours, PMA-differentiated HL-60 cells, LDH, no-treatment 0%, cell lysis buffer 100%): −7%
5 | (4-(benzo[b]thiophen-4-yl)-1-((4-((2-oxo-1,2-dihydroquinolin-7-yl)oxy)butyl)piperazin-1-ium-1-yl)methyl hydrogen phosphate [EX 1] | 0 nM | 0 nM | −7% |  | 
6 | (4-(benzo[b]thiophen-4-yl)-1-(4-(2-oxo-1,2-dihydroquinolin-7-yl)oxy)butyl)piperazin-1-ium-1-yl)methyl (5-bromopentyl) phosphate [EX 114] |  |  | 14% |  | 
7 | O=C(OC[N+]1(CCCCOc2ccc3ccc(=O)[nH]c3c2)CCN(c2cccc3sccc23)CC1)N1CCCCC1 [Reference Example 4 compound, reference compound] |  |  |  |  | cytotoxicity compared with the controls (in words) ([2]; 300 μmol/L, about 24 hours, HL-60 cells): stronger cytotoxicity than that of the Reference Example 3 compound
8 | O=c1ccc2ccc(OCCCC[N+]3(COP(=O)([O-])OCCCCCCO)CCN(c4cccc5sccc45)CC3)cc2[nH]1 [EX 44, (4-(benzo[b]thiophen-4-yl)-1-(4-((2-oxo-1,2-dihydroquinolin-7-yl)oxy)butyl)piperazin-1-ium-1-yl)methyl (6-hydroxyhexyl) phosphate] | 0 nM | -50 nM |  | -8% | 
9 | CCC(CC)COC(=O)[C@@H](C)OP(=O)([O-])OC[N+]1(CCCCOc2ccc3ccc(=O)[nH]c3c2)CCN(c2cccc3sccc23)CC1 [EX 108, (R)-(4-(benzo[b]thiophen-4-yl)-1-(4-((2-oxo-1,2-dihydroquinolin-7-yl)oxy)butyl)piperazin-1-ium-1-yl)methyl (1-(2-ethylbutoxy)-1-oxopropan-2-yl) phosphate] | 0 nM | 80 nM |  | -7% | 
10 | O=c1ccc2ccc(OCCCC[N+]3(COP(=O)([O-])OCCCCCCCBr)CCN(c4cccc5sccc45)CC3)cc2[nH]1 [EX 64, (4-(benzo[b]thiophen-4-yl)-1-(4-((2-oxo-1,2-dihydroquinolin-7-yl)oxy)butyl)piperazin-1-ium-1-yl)methyl (7-bromoheptyl) phosphate] | 0 nM | 30 nM |  | 9% | 
11 | COCC1CCC(COP(=O)([O-])OC[N+]2(CCCCOc3ccc4ccc(=O)[nH]c4c3)CCN(c3cccc4sccc34)CC2)CC1 (stereo not drawn) [EX 54, (4-(benzo[b]thiophen-4-yl)-1-(4-((2-oxo-1,2-dihydroquinolin-7-yl)oxy)butyl)piperazin-1-ium-1-yl)methyl ((4-(methoxymethyl)cyclohexyl)methyl) phosphate] | 0 nM | 140 nM |  | -10% | 
12 | COCCN(CCOC)P(=O)([O-])OC[N+]1(CCCCOc2ccc3ccc(=O)[nH]c3c2)CCN(c2cccc3sccc23)CC1 [EX 153, (4-(benzo[b]thiophen-4-yl)-1-(4-((2-oxo-1.2-dihydroquinolin-7-yl)oxy)butyl)piperazin-1-ium-1-yl)methyl bis(2-methoxyethyl)phosphoramidate] | 0 nM | -10 nM |  |  | cytotoxicity at 24 h, 300 µM [4]: -7%

From patent US20260285888A1, “HETEROCYCLIC COMPOUND AND USE THEREOF” (OTSUKA PHARMACEUTICAL CO., LTD., priority 2023, published 2026)
